Assay results reported in patent publication US12371676B2, “Circularly permutated haloalkane transferase fusion molecules” (MAX-PLANCK-GESELLSCHAFT ZUR FÖRDERUNG DER WISSENSCHAFTEN E. …, priority 2019, dated 2025).

Tests used:
[1] = FKBP/FRB model system, FP labelling kinetics with or without rapamycin; type: biochemical; settings: in combination with a FKPB/FRB sensor system; versus PEP1
Description: FIG. 13 Model system to test split HaloTag™ performance: Left: Scheme explaining the FKBP/FRB based model system. cpHaloΔ and the 9mer peptide are fused to FKBP and FRB, respectively, to render the split complementation and activity dependent on their rapamycin dependent interaction. Right: Labelling kinetics of the model system were followed via a fluorescence polarization assay in the presence or absence of rapamycin (Rap). Halo-TMR was used as substrate and each experiment was performed in triplicate.
FIG. 14 Impact of different flexible linkers in the FKBP/FRB model system: Labelling kinetics of split HaloTag™ fused to FKBP and FRB using different flexible linkers were observed via a fluorescence polarization assay in the presence or absence of rapamycin. Halo-TMR was used as substrate and each experiment was performed in triplicate.
The inventors further tested the performance of the split-HaloTag system of the invention for labelling protein-protein interactions in a simple model system. They used the strong interaction of the proteins FKBP and FRB, which is conditional on the presence of the small-molecule drug rapamycin. […] Different flexible linkers (1-3 times GGS) were placed between the interacting proteins (FKBP/FRP) and the split HaloTag™ fragments to assess the effect of linker length and to find well performing linker combinations (FIG. 14). […]

[2] = FP kinetic assay of calcium integrators (split integrator, CaProLa); type: biochemical; settings: in combination with the calmodulin/M13 sensor system; versus PEP1
Description: FIG. 6 M13—cpHaloΔ9mer and 9mer—CaM linker length optimization: All combinations of split integrators composed of M13—(GGS)1-3—cpHaloΔ9mer and 9mer—(GGS)1-3—CaM were tested in an FP kinetic assay in the presence of calcium or EGTA.
FIG. 8 Performance of CaProLa constructs with different M13—CaM linkers: FP kinetics of different CaProLa constructs and the split integrator under four conditions: in the presence of calcium (red), in the absence of calcium (purple), in the absence of calcium but spiked with calcium after 1 h (cyan), in the presence of calcium, followed by an EGTA spike to stop the reaction, followed by a calcium spike to restart the reaction (green). Small arrows indicate the EGTA and calcium spikes. Curves in the presence of calcium (red) were fitted to a second order reaction rate equation to determine the rate constants. All experiments were performed in triplicates. GGTGGS: SEQ ID NO 027.
FIG. 11 Performance of second generation CaProLa constructs: A fluorescence polarization kinetic assays with Halo-TMR of CaProLa 2.1-2.3 were performed under four conditions: in the presence of calcium (red), in the absence of calcium (purple), in the absence of calcium but spiked with calcium after 1 h (cyan), in the presence of calcium, followed by an EGTA spike to stop the reaction, followed by a calcium spike (green). Small arrows indicate the EGTA and calcium spikes. […]

Substance: PEP2: 10mer Peptide 145-ARETFQAFRT-154, second partial effector sequence with extra C-terminal threonine (partial sensor sequence)
- effect of the extra threonine on reaction speed [1]: does not have much effect
- effect of the extra threonine on reaction speed [2]: significant increase in the reaction speed
